Read-outs that look alike come from different tables or passages of the source.
How the values were obtained:
C-Raf kinase = target: T1, C-Raf kinase (Homo sapiens, UniProt P04049, Y340D/Y341D); test: Biochemical Assay for C-Raf (coupled pyruvate kinase/lactate dehydrogenase assay)
T1 construct: C-Raf residues 306-end; Y340D, Y341D with N-; GST (N); purchased Eurofins

MiaPaca-2 cells = test: MiaPaca-2 Cell Proliferation Assay; assay type: cell-based; settings: Homo sapiens, MIA PaCa-2
Description: MiaPaca-2 cells (catalog #CRL-1420) are obtained from the American Type Culture Collect (ATTC, Manassas, VA). Briefly, cells were grown in DMEM supplemented with 10% characterized fetal bovine serum (Invitrogen, Carlsbad, CA), 2.5% New Zealand sourced horse serum and 1% Penicillin/Streptomycin/L-Glutamine at 37° C., 5% CO2, and 95% humidity. Cells are expanded until reaching 70-95% confluency at which point they are sub-cultured or harvested for assay use. For assays completed in 96-well plates, a serial dilution of test compound is dispensed into a 96-well black clear bottom plate in triplicate. Three thousand cells are added per well in 200 μL complete growth medium in the 96-well plate. Plates are incubated for 67 to 72 h at 37° C., 5% CO2, and 95% humidity. At the end of the incubation, 40 μL of a […] solution of resazurin (Sigma, St. Louis, MO) in PBS is added to each well of the plate and plates are incubated for an additional 5 to 6 hours at 37° C., 5% CO2, and 95% humidity. For 384-well assays, a threefold, 8-point serial dilution of compound was spotted column wise into a 384 well black, clear bottom, tissue culture treated plate using the Beckman Coulter Echo 650. Likewise, a threefold, 8-point serial dilution of cobimetinib was spotted row wise into the 384 well black, clear bottom plate containing compound. DMSO concentration was constant across all wells at 0.4%. Seven hundred fifty cells are added per well in 50 μL complete growth medium in each 384-well plate. Plates are incubated for 67 to 72 h at 37° C., 5% CO2, and 95% humidity. At the end of the incubation, 10 μL of a 440 μM solution of resazurin (Sigma, St. Louis, MO) in PBS is added to each well of the plate and plates are incubated for an additional 4 to 6 h at 37° C., 5% CO2, and 95% humidity. Plates are read on a Synergy2 or equivalent reader (Biotek, Winooski VT) using an excitation of 540 nm and an emission of 600 nm. Data is analyzed using Prism software (Graphpad, San Diego, CA) to calculate IC50 values.

B-Raf kinase = target: T2, B-Raf kinase (Homo sapiens, UniProt P15056); test: Biochemical Assay for B-Raf (coupled pyruvate kinase/lactate dehydrogenase assay)
T2 construct: GST (N); purchased Sigma

HCT-116 cells = test: HCT-116 Cell Proliferation Assay; assay type: cell-based; settings: Homo sapiens
Description: HCT-116 cells (catalog #CCL-247) are obtained from the American Type Culture Collect (ATCC, Manassas, VA). Briefly, cells are grown in McCoy's 5A supplemented with 10% characterized fetal bovine serum (Invitrogen, Carlsbad, CA) and 1% Penicillin/Streptomycin/L-Glutamine at 37° C., 5% CO2, and 95% humidity. Cells are expanded until reaching 70-95% confluency at which point they are sub-cultured or harvested for assay use. A serial dilution of test compound is dispensed into a 384-well black clear bottom plate in triplicate. 375 cells are added per well in 50 μL complete growth medium in the 384-well plate. Plates are incubated for 67 to 72 h at 37° C., 5% CO2, and 95% humidity. At the end of the incubation, 40 μL of a […] solution of resazurin (Sigma, St. Louis, MO) in PBS is added to each well of the plate and plates are incubated for an additional 4 to 5 hours at 37° C., 5% CO2, and 95% humidity. Plates are read on a Synergy2 or equivalent reader (Biotek, Winooski, VT) using an excitation of 540 nm and an emission of 600 nm. Data is analyzed using Prism software (Graphpad, San Diego, CA) to calculate IC50 values.

HPAF-II cells = test: HPAF-II Cell Proliferation Assay; assay type: cell-based; settings: Homo sapiens, HPAF-II; Table 4; read-out: HPAF-II IC50
Description: HPAF-II cells (catalog #CRL-1997) are obtained from the American Type Culture Collect (ATCC, Manassas, VA). Briefly, cells are grown in Minimum Essential Media supplemented with 10% characterized fetal bovine serum (Invitrogen, Carlsbad, CA) and 1% Penicillin/Streptomycin/L-Glutamine at 37° C., 5% CO2, and 95% humidity. Cells are expanded until reaching 70-95% confluency at which point they are sub-cultured or harvested for assay use. A serial dilution of test compound is dispensed into a 384-well black clear bottom plate in triplicate. 750 cells are added per well in 50 μL complete growth medium in the 384-well plate. Plates are incubated for 115 to 120 h at 37° C., 5% CO2, and 95% humidity. At the end of the incubation, 40 μL of a […] solution of resazurin (Sigma, St. Louis, MO) in PBS is added to each well of the plate and plates are incubated for an additional 18 to 24 h at 37° C., 5% CO2, and 95% humidity. Plates are read on a Synergy2 or equivalent reader (Biotek, Winooski, VT) using an excitation of 540 nm and an emission of 600 nm. Data is analyzed using Prism software (Graphpad, San Diego, CA) to calculate IC50 values.

[1] = Table 1, inhibition of biochemical activity, read-out: CRAF
[2] = Table 2, inhibition of cell proliferation, read-out: MiaPaca-2
[3] = Table 1, inhibition of biochemical activity, read-out: BRAF
[4] = Table 2, inhibition of cell proliferation, read-out: HCT-116

T2 sequence (P15056 416-766): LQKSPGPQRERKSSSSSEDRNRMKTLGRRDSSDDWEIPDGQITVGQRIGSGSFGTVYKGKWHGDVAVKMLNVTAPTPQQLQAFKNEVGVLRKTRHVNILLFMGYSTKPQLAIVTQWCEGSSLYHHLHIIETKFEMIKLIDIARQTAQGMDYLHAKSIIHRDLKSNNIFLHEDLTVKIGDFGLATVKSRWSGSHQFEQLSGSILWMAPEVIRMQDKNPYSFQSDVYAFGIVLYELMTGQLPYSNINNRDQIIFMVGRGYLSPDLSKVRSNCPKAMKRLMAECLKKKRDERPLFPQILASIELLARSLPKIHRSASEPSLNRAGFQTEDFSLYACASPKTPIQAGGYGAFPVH
T1 sequence (P04049 307-648 Y340D/Y341D): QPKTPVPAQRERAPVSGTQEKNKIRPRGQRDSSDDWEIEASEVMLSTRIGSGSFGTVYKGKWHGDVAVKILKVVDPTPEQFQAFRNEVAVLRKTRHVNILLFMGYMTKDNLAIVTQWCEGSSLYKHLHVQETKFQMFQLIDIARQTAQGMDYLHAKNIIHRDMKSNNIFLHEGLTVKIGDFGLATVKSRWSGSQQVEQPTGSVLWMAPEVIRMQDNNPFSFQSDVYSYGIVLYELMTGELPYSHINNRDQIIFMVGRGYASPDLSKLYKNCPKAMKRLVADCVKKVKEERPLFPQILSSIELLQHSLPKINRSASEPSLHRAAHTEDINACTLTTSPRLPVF

Row | Compound | IC50 (C-Raf kinase; [1]) [µM] | IC50 (MiaPaca-2 cells; [2]) [µM] | IC50 (B-Raf kinase; [3]) [µM] | IC50 (HCT-116 cells; [4]) [µM] | other results
1 | CC(=O)Nc1cc(-c2cc(-c3cc(NC(=O)Nc4ccc(C(F)(F)F)nc4)ccc3C)nn(C)c2=O)ccn1 [Example 8] | 1 to 10 | 1 to 10 | 1 to 10 | 1 to 10 | 
2 | Cc1ccc(NC(=O)Nc2ccc(C(F)(F)F)nc2)cc1-c1cc(-c2ccnc(NC(=O)CN(C)C)c2)c(=O)n(C)c1 [Example 11] | 0.1 to 0.5 | 0.5 to 1 | 0.1 to 0.5 | 0.5 to 1 | 
3 | Cc1cc(F)c(NC(=O)Nc2ccc(C(F)(F)F)nc2)cc1-c1cc(OCCN(C)C)nc(N2CCOCC2)c1 [Example 27] | 0.1 to 0.5 | 1 to 10 | 0.5 to 1 |  | 
4 | Cc1ccc(NC(=O)Nc2cccnc2)cc1-c1cc(OCCO)nc(N2CCOCC2)c1 [Example 28] | < 0.1 | 0.1 to 0.5 | 0.5 to 1 | 1 to 10 | 
5 | Cc1ccc(NC(=O)Nc2ccc(C(F)(F)F)nc2)cc1-c1cc(-c2cnn(C)c2)nc(N2CCOCC2)c1 [Example 29] | < 0.1 | < 0.1 | < 0.1 |  | 
6 | Cc1ccc(NC(=O)Nc2ccc(C(F)(F)F)nc2)cc1-c1cc(OCCN(C)C)nc(N2CCOCC2)c1 [Example 30] | < 0.1 | < 0.1 | 0.1 to 0.5 |  | 
7 | Cc1ccc(NC(=O)Nc2ccc(C(F)(F)F)nc2)cc1-c1cc(N2CCOCC2)nc(N2CCN(C)CC2)c1 [Example 31] | 0.1 to 0.5 | 0.1 to 0.5 | 0.5 to 1 |  | 
8 | Cc1ccc(NC(=O)Nc2ccc(C(F)(F)F)nc2)cc1-c1cc(N2CCOCC2)nc(N2CCOCC2)c1 [Example 32] | < 0.1 | < 0.1 | < 0.1 |  | 
9 | Cc1ccc(NC(=O)Nc2ccc(C(F)(F)F)nc2)cc1-c1cc(OCC2COC2)nc(N2CCOCC2)c1 [Example 33] | < 0.1 | < 0.1 | 0.1 to 0.5 |  | 
10 | Cc1ccc(NC(=O)Nc2ccc(C(F)(F)F)nc2)cc1-c1cc(F)nc(N2CCOCC2)c1 [Example 35] | 1 to 10 |  | 1 to 10 |  | 
11 | Cc1ccc(NC(=O)Nc2ccc(C(F)(F)F)nc2)cc1-c1cc(OCCO)nc(N2CCOCC2)c1 [Example 37] | < 0.1 | < 0.1 | 0.1 to 0.5 | < 0.1 | 
12 | Cc1ccc(NC(=O)Nc2ccc(C(F)F)nc2)cc1-c1cc(OCCO)nc(N2CCOCC2)c1 [Example 38] |  | < 0.1 |  |  | 
13 | Cc1ccc(NC(=O)Nc2ccc(C(F)(F)F)nc2)cc1-c1cc(OCCO)nc(-c2cn[nH]c2)c1 [Example 42] | < 0.1 | < 0.1 | < 0.1 |  | 
14 | CC(=O)Nc1cc(-c2cc(-c3cc(NC(=O)NC4CCC(F)(F)CC4)c(F)cc3C)cc(OCCO)n2)ccn1 [reference compound] |  |  |  |  | IC50 (HPAF-II cells): 0.5 to 1 µM; IC50 (HCT-116 cells; HCT-116, Table 4, read-out: HCT-116 IC50): 0.5 to 1 µM

Now from value to molecule, other results behind:

Row | IC50 (C-Raf kinase; [1]) [µM] | IC50 (MiaPaca-2 cells; [2]) [µM] | IC50 (B-Raf kinase; [3]) [µM] | IC50 (HCT-116 cells; [4]) [µM] | Compound | other results
15 | < 0.1 | 0.1 to 0.5 | 0.1 to 0.5 |  | COCC(=O)Nc1cc(-c2cc(-c3cc(NC(=O)Nc4ccc(C(F)(F)F)nc4)ccc3C)cn(C)c2=O)ccn1 [Example 3, 2-methoxy-N-(1-methyl-5-(2-methyl-5-(3-(6-(trifluoromethyl)pyridin-3-yl)ureido)phenyl)-2-oxo-1,2-dihydro-[3,4′-bipyridin]-2′-yl)acetamide] | 
16 | < 0.1 | < 0.1 | < 0.1 |  | CC(=O)Nc1cc(-c2cc(-c3cc(NC(=O)Nc4ccc(C(F)(F)F)nc4)ccc3C)cc(OCCO)n2)ccn1 [Example 5] | 
17 | < 0.1 | 0.5 to 1 | < 0.1 | 1 to 10 | CC(=O)Nc1cc(-c2cc(-c3cc(NC(=O)Nc4ccc(C(F)(F)F)nc4)cnc3C)ccn2)ccn1 [Example 6] | 
18 | < 0.1 | 1 to 10 | < 0.1 | 1 to 10 | CC(=O)Nc1cc(-c2cc(-c3cc(NC(=O)Nc4ccc(C(F)(F)F)nc4)ccc3C)cc(=O)n2C)ccn1 [Example 7] | 
19 | < 0.1 | 0.1 to 0.5 | < 0.1 | 0.1 to 0.5 | CC(=O)Nc1cc(-c2cncc(-c3cc(NC(=O)Nc4ccc(C(F)(F)F)nc4)ccc3C)n2)ccn1 [Example 12] | 
20 | < 0.1 | 0.5 to 1 | < 0.1 | 0.5 to 1 | COCC(=O)Nc1cc(-c2cncc(-c3cc(NC(=O)Nc4ccc(C(F)(F)F)nc4)ccc3C)n2)ccn1 [Example 13] | 
21 | < 0.1 | 1 to 10 | < 0.1 | 1 to 10 | Cc1ccc(NC(=O)Nc2ccc(C(F)(F)F)nc2)cc1-c1cncc(-c2ccnc(NC(=O)CC#N)c2)n1 [Example 14] | 
22 | < 0.1 | 0.5 to 1 | < 0.1 |  | Cc1ccc(NC(=O)Nc2ccc(C(F)(F)F)nc2)cc1-c1cncc(-c2cc(NC(=O)C3CC3)ncn2)c1 [Example 15] | 
23 | < 0.1 | 0.1 to 0.5 | < 0.1 |  | Cc1ccc(NC(=O)Nc2ccc(C(F)(F)F)nc2)cc1-c1cncc(-c2cc(N)ncn2)c1 [Example 16] | 
24 | < 0.1 | 0.1 to 0.5 | < 0.1 |  | CNC(=O)c1cc(-c2cncc(-c3cc(NC(=O)Nc4ccc(C(F)(F)F)nc4)ccc3C)c2)ncn1 [Example 21] | 
25 | < 0.1 | < 0.1 | 0.1 to 0.5 |  | Cc1ccc(NC(=O)Nc2ccc(C)c(-c3cc(OCCO)nc(N4CCOCC4)c3)c2)cn1 [Example 23, 1-(3-(2-(2-hydroxyethoxy)-6-morpholinopyridin-4-yl)-4-methylphenyl)-3-(6-methylpyridin-3-yl)urea] | 
26 | < 0.1 | < 0.1 | 0.1 to 0.5 |  | Cc1ccc(NC(=O)Nc2cnc(C(F)(F)F)nc2)cc1-c1cc(OCCO)nc(N2CCOCC2)c1 [Example 24, 1-(3-(2-(2-hydroxyethoxy)-6-morpholinopyridin-4-yl)-4-methylphenyl)-3-(2-(trifluoromethyl)pyrimidin-5-yl)urea] | IC50 (C-Raf kinase; Table 3, read-out: CRAF IC50): 0.1 to 0.5 µM; IC50 (MiaPaca-2 cells; Table 3, read-out: MiaPaca-2 IC50): < 0.1 µM; IC50 (B-Raf kinase; Table 3, read-out: BRAF IC50): 0.1 to 0.5 µM; IC50 (HCT-116 cells; HCT-116, Table 3, read-out: HCT-116 IC50): < 0.1 µM
27 | < 0.1 | 0.1 to 0.5 | 0.1 to 0.5 | 0.5 to 1 | Cc1ccc(NC(=O)Nc2ccc(C(F)(F)F)nc2)cc1-c1cc(OC2CCNCC2)nc(N2CCOCC2)c1 [Example 25, 1-(4-methyl-3-(2-morpholino-6-(piperidin-4-yloxy)pyridin-4-yl)phenyl)-3-(6-(trifluoromethyl)pyridin-3-yl)urea] | 
28 | < 0.1 | < 0.1 | 1 to 10 |  | Cc1ncc(NC(=O)Nc2ccc(C(F)(F)F)nc2)cc1-c1cc(OCCO)nc(N2CCOCC2)c1 [Example 26] | 
